# Where “and” joins values, the source holds several entries; their conditions need not be identical. Equal values may be shown once.
# T1: VLXB:StrepII (soybean, UniProt A0A0R0G554 1-853)
# T1 sequence (looked up): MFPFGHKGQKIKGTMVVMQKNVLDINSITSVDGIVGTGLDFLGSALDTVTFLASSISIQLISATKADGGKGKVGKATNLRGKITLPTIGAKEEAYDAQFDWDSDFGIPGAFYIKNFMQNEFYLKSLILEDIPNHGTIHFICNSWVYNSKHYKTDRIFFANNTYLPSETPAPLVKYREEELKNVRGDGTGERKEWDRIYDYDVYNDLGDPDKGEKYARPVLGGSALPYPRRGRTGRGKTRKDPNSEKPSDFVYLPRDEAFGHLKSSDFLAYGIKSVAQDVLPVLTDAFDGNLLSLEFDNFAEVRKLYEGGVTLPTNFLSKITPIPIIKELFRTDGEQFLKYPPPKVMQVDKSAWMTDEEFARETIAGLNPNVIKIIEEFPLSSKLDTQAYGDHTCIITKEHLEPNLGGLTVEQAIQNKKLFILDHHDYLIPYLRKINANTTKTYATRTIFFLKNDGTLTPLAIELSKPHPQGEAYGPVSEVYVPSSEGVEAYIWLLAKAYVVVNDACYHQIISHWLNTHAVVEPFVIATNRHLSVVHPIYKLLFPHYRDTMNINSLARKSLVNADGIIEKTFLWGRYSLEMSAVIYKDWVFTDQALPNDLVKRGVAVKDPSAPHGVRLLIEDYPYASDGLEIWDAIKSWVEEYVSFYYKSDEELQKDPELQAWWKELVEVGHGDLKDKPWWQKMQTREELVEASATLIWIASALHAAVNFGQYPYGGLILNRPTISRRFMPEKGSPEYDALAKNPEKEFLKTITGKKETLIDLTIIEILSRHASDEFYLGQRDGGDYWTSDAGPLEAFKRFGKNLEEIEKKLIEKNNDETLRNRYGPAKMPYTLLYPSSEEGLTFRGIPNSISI
# T2: GmPLDα1:StrepII (soybean, UniProt I1KH24 1-809)
# T2 construct: GmPLDα1, soybean phospholipase Dα1 (Glyma.07G031100), ORF; In pRSETA (pGM1032); the methods call these proteins (His)6/StrepII-tagged; also called soybean PHOSPHOLIPASE Dα1; source: E. coli, purified (HisTrap HP, Strep-Tactin XT); not shown: StrepII, C-terminal, kept
# T2 sequence (looked up): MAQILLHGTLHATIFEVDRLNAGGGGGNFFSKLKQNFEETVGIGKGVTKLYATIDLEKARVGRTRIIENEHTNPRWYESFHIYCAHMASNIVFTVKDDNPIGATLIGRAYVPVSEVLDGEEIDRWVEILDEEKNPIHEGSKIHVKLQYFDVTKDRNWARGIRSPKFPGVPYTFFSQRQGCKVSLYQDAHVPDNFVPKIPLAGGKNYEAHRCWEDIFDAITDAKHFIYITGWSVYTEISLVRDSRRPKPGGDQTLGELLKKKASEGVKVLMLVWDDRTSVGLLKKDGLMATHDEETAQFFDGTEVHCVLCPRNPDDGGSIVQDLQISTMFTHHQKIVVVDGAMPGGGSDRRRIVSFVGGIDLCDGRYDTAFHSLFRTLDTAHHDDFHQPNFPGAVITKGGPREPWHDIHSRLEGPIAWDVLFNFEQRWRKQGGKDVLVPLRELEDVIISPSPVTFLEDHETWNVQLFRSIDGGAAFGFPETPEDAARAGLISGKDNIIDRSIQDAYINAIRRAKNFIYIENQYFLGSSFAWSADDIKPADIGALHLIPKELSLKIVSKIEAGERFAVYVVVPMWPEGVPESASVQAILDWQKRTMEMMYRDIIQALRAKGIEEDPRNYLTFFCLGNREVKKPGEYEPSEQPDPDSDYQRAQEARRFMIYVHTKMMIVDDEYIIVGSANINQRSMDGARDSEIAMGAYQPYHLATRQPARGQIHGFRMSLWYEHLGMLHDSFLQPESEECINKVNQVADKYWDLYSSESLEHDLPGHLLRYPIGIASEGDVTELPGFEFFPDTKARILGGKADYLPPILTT
# Legend:
# [1] = tested on: GmACBP4.1_33–354 interaction with GmPLDα1:StrepII; experiment: Strep-Tactin pull-down assay with supplemented acyl-CoAs; assay type: binding, soybean; settings: acyl-CoA 12.5–100 μM, versus control without acyl-CoA
# Excerpt: Figure 6 Specific acyl-CoA species facilitate GmACBP4 interaction with VLXB and GmPLDα1. A, Strep-Tactin pull-down assays. […] (His)6-GmACBP4.1_33–354 were detected in eluates by immunoblotting using anti-ACBP3 antibodies. […] Input lanes represent 1% protein. Arrowheads indicate target bands of 40-kD (His)6-GmACBP4.1_33–354 (apparent: 50 kD). The bound protein fraction was quantified densitometrically. […] B–C, Strep-Tactin pull-down assays with supplemented acyl-CoAs. […] Input lanes represent 5% proteins in (B) or 10% proteins in (C). Arrowheads indicate target bands of 40-kD (His)6-GmACBP4.1_33–354 (apparent: 50kD).
# Strep-Tactin pull-down assays were performed using Strep-Tactin XT resins (IBA) following the manufacturer’s instructions. Briefly, 5 μL of resins with/without prebound VLXB:StrepII or GmPLDα1:StrepII (0.5 μM) were agitated with GmACBP4.1_33–354 (0.5 μM) and acyl-CoAs (0, 12.5, 25, 50, and 100 μM) in Buffer W containing 0.1 M Tris–HCl (pH 7), 0.15 M NaCl, 1 mM EDTA and 0.05% (w/v) Triton X-100 at 4°C for 2 h. After three washes in Buffer W, bound proteins were eluted in Buffer W with 50 mM biotin, and analyzed by immunoblotting using anti-ACBP3.1 antibodies.
# [2] = tested on: GmACBP4.1_33–354 interaction with VLXB:StrepII; experiment: as above; assay type: binding, soybean
# (His)6-GmACBP4.1_33–354 [3] = experiment: Isothermal titration calorimetry of acyl-CoA binding (WT protein); parameters: species or system soybean; settings: ITC at 25°C; 15 μM protein titrated with 200 μM acyl-CoA; mean ± SD, three experiments; read-out: KD, dissociation constant
# Experimental: ITC was conducted with a MicroCal iTC200 system (GE Healthcare) at 25°C in 10 mM sodium phosphate (pH 7) by 20 injections of 1.8-μL acyl-CoAs (200 μM; Avanti Polar Lipids Inc., Alabaster, AL, USA) into the sample cell with 15 μM purified (His)6-GmACBP4.1. Each injection lasted 4 s at 150-s intervals with a stirring speed of 1,000 rpm. Nonspecific heat effects were estimated and corrected after saturation. The baseline was adjusted, and the data were fitted into a single-site binding model using the Origin version 7.0 software (OriginLab).
# Supplemental Table 1. Binding constants and thermodynamic parameters for (His)6-GmACBP4.133–354 interaction with acyl-CoAs. (Supports Figure 5A) […]
# Isothermal titration calorimetry analysis was performed by titration of 250 μL of 15 μM (His)6-GmACBP4.133–354 with […]
# from three independent experiments. n, stoichiometry (number of ligand sites per protein); KD, dissociation constant; ∆H, enthalpy change; −T∆S, entropy change; ∆G, Gibbs free energy.
# AtACBP1 = biological target: AtACBP1; parameters: method as in Xue et al., 2014; settings: ref Xue et al., 2014; cited from earlier work
# (His)6-GmACBP4.1_33–354 [4] = experiment: Liposome association assay for PA binding; parameters: species or system soybean; settings: PA:di-16:0-PC liposomes, 0–100% (w/w) PA
# (His)6-GmACBP4.1_33–354 [5] = experiment: Protein–lipid overlay assay; assay type: binding, soybean; settings: commercial strips and PA-spotted nitrocellulose strips; 0.5 μg mL−1 protein
# VLXB:StrepII [6] = biological target: T1, VLXB:StrepII; experiment: cell-based or functional assay
# VLXB:StrepII [7] = biological target: T1, VLXB:StrepII; experiment: pull-down; Strep-Tactin XT resins with prebound VLXB:StrepII or GmPLDα1:StrepII (0.5 μM) agitated with (His)6-GmACBP4.1(33-354) (0.5 μM) and acyl-CoAs (0, 12.5, 25, 50, 100 μM) in 0.1 M Tris-HCl pH 7, 0.15 M NaCl, 1 mM EDTA, 0.05% Triton X-100 at 4°C for 2 h; eluted with 50 mM biotin; immunoblot with anti-ACBP3.1 antibodies; settings: both partners purified
# GmPLDα1:StrepII = biological target: T2, GmPLDα1:StrepII; experiment: as above; settings: both partners purified
# [8] = acyl-CoA 12.5–100 μM, versus control without acyl-CoA
Molecule,increase in WT binding with GmPLDα1:StrepII [1],Kd ((His)6-GmACBP4.1_33–354 [3]),binding on lipid filter strips ((His)6-GmACBP4.1_33–354 [5]),descending order of affinity to the WT (liposome association) ((His)6-GmACBP4.1_33–354 [4]),also measured
CCCCCCCCCCCCCCCC(=O)SCCNC(=O)CCNC(=O)[C@H](O)C(C)(C)COP(=O)(O)OP(=O)(O)OC[C@H]1O[C@@H](n2cnc3c(N)ncnc32)[C@H](O)[C@@H]1OP(=O)(O)O [C16:0-CoA],up to nine-fold,800 ± 100 nM,,,"increase in WT binding with VLXB:StrepII [2, 8]: negligible"
CCCCCCCCCCCCCC(=O)OC[C@H](COP(=O)(O)O)OC(=O)CCCCCCCCCCCCC [di-14:0-PA],,,lower affinity,di-16:0-PA ≈ di-18:1-PA > di-18:0-PA > di-14:0-PA,
CCCCCCCCC=CCCCCCCCC(=O)OCC(COP(=O)(O)O)OC(=O)CCCCCCCC=CCCCCCCCC (stereo not drawn) [di-18:1-PA],,,,di-16:0-PA ≈ di-18:1-PA > di-18:0-PA > di-14:0-PA,
"(His)6-GmACBP4.1_(33–354) (domain or fragment, UniProt I1KAV2 33-354, looked up, In pRSETA (pGM963); also called WT; recombinant GmACBP4.1 without the TM domain; source: E. coli, purified (HisTrap HP, HiTrap Q HP); not shown: (His)6, N-terminal, kept) DDNLTVTRASAAETTATRAEQFEDALKRDDAVSSDARPFEEESVVAEHGSVRIDSDGDYDDDWEGVESTELDEAFSAATAFVAAAAADRLSQKVSSDVQLQLYGLYKIATEGPCSTPQPSPLKMTARAKWQAWQKLGAMPPEDAMQKYIDIVTEIYPTWLDGSSLRNKSGDSGGHGSEAKGPMGPVFSTFVYEEEYGSDSQMEAIHGFAREGDMANLLKCIENGVSMNLKDSEGRTPLHWAVDRGHLNVTELLVGKNADVNAKDNDGQTPLHYAVTCEREAIAEYLVKHNADIYSKDNDGSSPRDICESNWPCMQHVGEEVN",,,,,IC50 of in vitro LOX activity of 100 nM VLXB:StrepII after incubation with 0.1-300 nM (His)6-GmACBP4.1(33-354) WT and 10 µM C18:2-CoA (VLXB:StrepII [6]): 8.5 nM; IC50 of in vitro LOX activity of 100 nM VLXB:StrepII after incubation with 0.1-300 nM (His)6-GmACBP4.1(33-354) WT and 10 µM C18:3-CoA (VLXB:StrepII [6]): 5 nM; fold increase of binding with 100 µM C18:3-CoA against no acyl-CoA (VLXB:StrepII [7]): 9 fold; fold increase of binding with C18:2-CoA against no acyl-CoA (VLXB:StrepII [7]): ≤ 4 fold; fold increase of binding with C16:0/C18:1-CoAs against no acyl-CoA (GmPLDα1:StrepII): ≤ 9 fold

# The next lines start with results.
increase in WT binding with GmPLDα1:StrepII [1],Kd ((His)6-GmACBP4.1_33–354 [3]),binding on lipid filter strips ((His)6-GmACBP4.1_33–354 [5]),Molecule,descending order of affinity to the WT (liposome association) ((His)6-GmACBP4.1_33–354 [4]),also measured
up to nine-fold,680 ± 80 nM,,CCCCCCCC/C=C\CCCCCCCC(=O)SCCNC(=O)CCNC(=O)[C@H](O)C(C)(C)COP(=O)(O)OP(=O)(O)OC[C@H]1O[C@@H](n2cnc3c(N)ncnc32)[C@H](O)[C@@H]1OP(=O)(O)O [C18:1-CoA],,"increase in WT binding with VLXB:StrepII [2, 8]: negligible"
did not influence,1170 nM and 900 to 1200 nM,,"CC/C=C\C/C=C\C/C=C\CCCCCCCC(=O)SCCNC(=O)CCNC(=O)[C@H](O)C(C)(C)COP(=O)(O)OP(=O)(O)OC[C@H]1O[C@@H](n2cnc3c(N)ncnc32)[C@H](O)[C@@H]1OP(=O)(O)O [C18:3-CoA, linolenoyl-CoA]",,increase in WT binding with VLXB:StrepII ([2]; 100 µM acyl-CoA): nine-fold; Kd (AtACBP1): 400 to 800 nM
,,did not interact,CCCCCCCCCCCCCCCC(=O)OC[C@H](COP(=O)([O-])OCC[N+](C)(C)C)OC(=O)CCCCCCCCCCCCCCC [di-16:0-phosphatidylcholine],,
,,lower affinity,CCCCCCCCCCCCCCCCCC(=O)OC[C@H](COP(=O)(O)O)OC(=O)CCCCCCCCCCCCCCCCC [di-18:0-PA],di-16:0-PA ≈ di-18:1-PA > di-18:0-PA > di-14:0-PA,
